By melting point is commonly meant the temperature, or range, at which the solid turns liquid. Broadly, the IC50 is the concentration needed to halve the response being measured.

The text below walks through data of patent publication US6444670B2 (Wyeth, priority 1998, dated 2002).

For data set [1], the target named is T1, Human recombinant PTP1B (hPTP1B) (Homo sapiens, UniProt P18031).
T1 construct: made in house
T1 sequence (P18031 1-435): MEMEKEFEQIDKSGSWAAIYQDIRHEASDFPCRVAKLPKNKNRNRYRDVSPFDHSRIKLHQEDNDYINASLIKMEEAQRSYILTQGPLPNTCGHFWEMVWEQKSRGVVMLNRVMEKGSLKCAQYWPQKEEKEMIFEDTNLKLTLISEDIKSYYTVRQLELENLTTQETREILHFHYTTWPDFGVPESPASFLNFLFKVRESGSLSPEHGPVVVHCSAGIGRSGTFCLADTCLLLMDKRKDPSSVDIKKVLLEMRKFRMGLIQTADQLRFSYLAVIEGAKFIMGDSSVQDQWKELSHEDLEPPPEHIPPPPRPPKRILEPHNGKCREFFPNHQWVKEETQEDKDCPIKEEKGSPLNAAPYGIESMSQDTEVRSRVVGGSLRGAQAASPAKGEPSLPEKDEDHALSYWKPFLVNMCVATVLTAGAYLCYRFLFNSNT
It counts as biochemical.

Data set [2] has as its system rat hepatic microsomal PTPases. The note with it: 50 μM compound.
The next data set deals with diabetic (ob/ob) mice. The data set is described as follows: Blood glucose lowering in diabetic (ob/ob) mice. The class given is in vivo, mouse. The settings on record: plasma glucose, dose 25 mg/Kg, (a) = no significant activity (p < 0.05) at this dose. The text has this: The procedures used and results obtained are briefly described below.
The non-insulin dependent diabetic (NIDDM) syndrome can be typically characterizes by obesity, hyperglycemia, abnormal insulin secretion, hyperinsulinemia and insulin resistance.
In each test procedure, mice [Male or female ob/ob (C57 B1/6J) and their lean litermates (ob/+ or +/+, Jackson Laboratories) ages 2 to 5 months (10 to 65 g)] of a similar age were randomized according to body weight into 4 groups of 10 mice. The mice were housed 5 per cage and are maintained on normal rodent chow with water ad libitum. Mice received test compound daily by gavage (suspended in 0.5 ml of 0.5% methyl cellulose); dissolved in the drinking water; or admixed in the diet. The dose of compounds given ranges from 2.5 to 200 mg/kg body weight/day. The dose is calculated based on the fed weekly body weight and is expressed as active moiety. […] Control mice received vehicle only.
On the morning of Day 4, 7 or 14 two drops of blood (approximetly 50 ul) were collected into sodium fluoride containing tubes either from the tail vein or after decapitation. For those studies in which the compound was administered daily by gavage the blood samples were collected 0 and 4 hours after compound administration. The plasma was isolated by centrifugation and the concentration of glucose is measured enzymatically on an Abbott V. P. Analyzer.
For each mouse, the percentage change in plasma glucose on Day 4, 7 or 14 is calculated relative to the mean plasma glucose of the vehicle treated mice. Analysis of variance followed by Dunett's Comparison Test (one-tailed) are used to estimate the significant difference between the plasma glucose values from the control group and the individual compound treated groups (CMS SAS Release 5.18).

With `COc1c(Br)cc(-c2c3ccccc3c(Br)c3sc(C)c(C)c23)cc1NCC(=O)O` [Example 60, [3-Bromo-5-(9-bromo-2,3-dimethyl-naphtho[2,3-b]thiophen-4-yl)-2-methoxy-phenylamino]-acetic Acid], the melting point is > 190 °C (dec.). In data set [1], the IC50 was 1510 nM.
With `Cc1sc2c(Br)c3ccccc3c(-c3ccc(O)c(N)c3)c2c1C` [Example 22, 2-Amino-4-(9-bromo-2,3-dimethyl-naphtho[2,3-b]thiophen-4-yl)-phenol], the melting point lay in the range of 173 to 175 °C. Moreover, the “% Change from Control” value in data set [2] is given as −28.57%.
As for `Cc1sc2c(Br)c3ccccc3c(-c3ccc(O)c([N+](=O)[O-])c3)c2c1C` [Example 20, 4-(9-Bromo-2,3-dimethyl-naphtho[2,3-b]thiophen-4-yl)-2-nitro-phenol], the melting point fell in the range of 183 to 185 °C. Besides, in data set [2], the “% Change from Control” value is listed as 2.13%.
`Cc1sc2c(Br)c3ccccc3c(-c3cc(Br)c(O)c(Br)c3)c2c1C` [Example 9, 2,6-Dibromo-4-(9-bromo-2,3-dimethyl-naphtho[2,3-b]thiophen-4-yl)-phenol] yielded a melting point of 172 to 174 °C. Moreover, in data set [2], the “% Change from Control” value was −49.80%. Also, the half-maximal inhibitory concentration (IC50) in data set [1] was found to be 539 nM.
For `Cc1sc2c(Br)c3ccccc3c(-c3cc(C(C)C)c(OCC(=O)O)c(C(C)C)c3)c2c1C` [Example 53, [4-(9-Bromo-2,3-dimethyl-naphtho[2,3-b]thiophen-4-yl)-2,6-diisopropyl-phenoxy]-acetic acid], in that order: 228 to 231 °C, −81.83% and 204 nM.
The corresponding values for `Cc1sc2c(Br)c3ccccc3c(-c3cc(Br)c(O[C@H](C)C(=O)O)c(Br)c3)c2c1C` [Example 30, (R)-2-[2,6-Dibromo-4-(9-bromo-2,3-dimethylnaptho[2,3-b]thien-4-yl)-phenoxy]-propanoic acid] are 224 to 225 °C, −60.32% and 869 nM.
`Cc1sc2c(Br)c3ccccc3c(-c3cc(Br)c(O[C@H](Cc4ccccc4)C(=O)O)c(C4CCCC4)c3)c2c1C` [Example 48] returned a melting point of 167 to 168.5 °C. Besides, the “% Change from Control” value in data set [2] is reported as −44.69%. For the same molecule, the “% Change Glucose from Vehicle” value with diabetic (ob/ob) mice was −20.1 ^ %. Besides, in data set [1], the IC50 was found to be 83 nM.
As for `Cc1sc2c(Br)c3ccccc3c(-c3cc(Br)c(O)c(C(C)C)c3)c2c1C` [Example 39, 2-Bromo-4-(9-bromo-2,3-dimethyl-naphtho[2,3-b]thiophen-4-yl)-6-isopropyl-phenol], the melting point is 157 to 162 °C. For the same molecule, the half-inhibitory concentration (IC50) in data set [1] amounted to 1740 nM.
With `Cc1sc2c(Br)c3ccccc3c(-c3cc(Br)c(O)c([N+](=O)[O-])c3)c2c1C` [Example 21, 2-Bromo-4-(9-bromo-2,3-dimethyl-naphtho[2,3-b]thiophen-4-yl)-6-nitro-phenol], the melting point was in the range of 129 to 130 °C. The “% Change from Control” value in data set [2] is −63.12%. In addition, the half-inhibitory concentration (IC50) in data set [1] is 381 nM.
For `Cc1sc2c(Br)c3ccccc3c(-c3cc(Br)c(O[C@@H](CCc4ccccc4)C(=O)O)c(Br)c3)c2c1C` [Example 31, (S)-2-[2,6-Dibromo-4-(9-bromo-2,3-dimethyl-naphtho[2,3-b]thiophen-4-yl)-phenoxy]-4-phenyl-butyric acid], in that order: 176 to 177 °C, −63.42% and 49 nM.
`Cc1sc2c(Br)c3ccccc3c(-c3cc(Br)c(O)c(NC(=O)OC(C)(C)C)c3)c2c1C` [Example 56, [3-Bromo-5-(9-bromo-2,3-dimethyl-naphtho[2,3-b]thiophen-4-yl)-2-hydroxy-phenyl]-carbamic Acid tert-Butyl Ester] displayed a melting point of 205 to 207 °C. Further, the half-inhibitory concentration (IC50) in data set [1] was 489 nM.
The corresponding values for `COC(=O)CNc1cc(-c2c3ccccc3c(Br)c3sc(C)c(C)c23)cc(Br)c1OC` [Example 59, [3-Bromo-5-(9-bromo-2,3-dimethyl-naphtho[2,3-b]thiophen-4-yl)-2-methoxy-phenylamino]-acetic Acid Methyl Ester] are 194 to 198 °C and 2200 nM.
As for `Cc1sc2c(Br)c3ccccc3c(-c3ccc(O)cc3)c2c1C` [Example 8, 4-(9-Bromo-2,3-dimethyl-naphtho[2,3-b]thiophen-4-yl)-phenol], the melting point was in the range of 165 to 168 °C.
Same read-out and setting: the same measure for `Cc1sc2c(I)c3ccccc3c(-c3ccc(OS(C)(=O)=O)cc3)c2c1C` [Example 11, Methanesulfonic acid 4-(9-iodo-2,3-dimethyl-naphtho[2,3-b]thiophen-4-yl)-phenyl ester]: 212 to 213 °C.
Still for that read-out and setting: under `COC(=O)[C@@H](Cc1ccccc1)Oc1c(Br)cc(-c2c3ccccc3c(Br)c3sc(C)c(C)c23)cc1Br` [Example 28, (R)-2-[2,6-Dibromo-4-(9-bromo-2,3-dimethyl-naphtho[2,3-b]thiophen4-yl)-phenoxy]3-phenyl-propionic acid methyl ester] stands 174 to 175 °C.
Consider `Cc1c(CN2CCOCC2)sc2c(Br)c3ccccc3c(-c3cc(Br)c(O)c(Br)c3)c12` [Example 19, 2,6-Dibromo-4-(9-bromo-3-methyl-2-morpholin-4-ylmethyl-naphtho[2,3-b]thiophen-4-yl)-phenol], for which the melting point lay in the range of 237 to 240 °C. Moreover, the “% Change from Control” value in data set [2] is listed as −30.40%. In data set [1], the half-maximal inhibitory concentration (IC50) amounted to 697 nM.
